According to patent US10517889B2, “Modulators of SMAD7 expression” (Ionis Pharmaceuticals, Inc., priority 2017, dated 2019):
“And” between values parts separate entries of the source, which are not always exact repeats. Equal values may be shown once. Strand notation (5' to 3'): a small letter for the sugar, then the base; units joined by * are phosphorothioate-linked, units joined directly phosphodiester-linked; [ ] holds rarer units or linkages, { } end groups; capitals alone tell only the bases. e = 2'-O-(2-methoxyethyl) (MOE); [5mC] = 5-methylcytosine; d = 2'-deoxy (DNA)

Legend:
human SMAD7 mRNA [1] = assay: Antisense inhibition of human SMAD7 mRNA expression in Hep3B cells by 5-10-5 MOE gapmers, single concentration, electroporation, RT-PCR (Example 1, Study 1 and 2); format: cell-based
Method in brief: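 Readout is percent SMAD7 mRNA inhibition versus untreated cells, measured by qRT-PCR (RTS5062) and corrected for total RNA by RIBOGREEN. Oligonucleotide, 5,000 nM or 15,000 nM, was delivered by electroporation into Hep3B cells at 20,000 per well. RNA was collected about 24 h later.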

human SMAD7 mRNA [2] = assay: Dose-dependent inhibition of human SMAD7 mRNA expression in Hep3B cells (Example 3, Study 1 and 2); format: cell-based; conditions: electroporation; for % inhibition of SMAD7 mRNA expression: approximately 16 hours; for IC50: Study 1 (312.5-20000 nM)
Method in brief: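 Hep3B cells, 20,000 per well, electroporated with antisense oligonucleotide at 0.31, 1.25, 5.00 or 20.00 μM (first series) or 0.74, 2.22, 6.67 or 20.00 μM (second series). After ~16 h, SMAD7 mRNA measured by RT-qPCR (RTS5062), normalised to RIBOGREEN total RNA. Percent inhibition vs untreated cells; IC50 derived.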

[3] = electroporation, 15,000 nM, approximately 24 hours, relative to untreated control cells, gapmers targeting SEQ ID NO: 1 and 2
[4] = 312.5 nM, Study 1, relative to untreated control cells
[5] = Study 2, electroporation with 15,000 nM antisense oligonucleotide, 5-10-5 MOE gapmers targeting SEQ ID NO: 1 and 2
[6] = electroporation with 15,000 nM antisense oligonucleotide (Study 2), 5-10-5 MOE gapmers targeting SEQ ID NO: 1 and 2
[7] = electroporation, 15,000 nM antisense oligonucleotide (Study 2), 5-10-5 MOE gapmers targeting SEQ ID NO: 1 and 2

Row | Substance | % inhibition of SMAD7 mRNA expression (human SMAD7 mRNA [1]; [3]) | % inhibition of SMAD7 mRNA expression (human SMAD7 mRNA [2]; [4]) | % inhibition of SMAD7 mRNA expression (human SMAD7 mRNA [2]; 1250.0 nM, Study 1) | % inhibition of SMAD7 mRNA expression (human SMAD7 mRNA [2]; 5000.0 nM, Study 1) | % inhibition of SMAD7 mRNA expression (human SMAD7 mRNA [2]; 20000.0 nM, Study 1) | IC50 (human SMAD7 mRNA [2]) | % inhibition of SMAD7 mRNA expression (human SMAD7 mRNA [1]; [5]) | % inhibition of SMAD7 mRNA expression (human SMAD7 mRNA [1]; [6]) | % Inhibition of SMAD7 mRNA (human SMAD7 mRNA [1]; [6]) | % inhibition of SMAD7 mRNA expression (human SMAD7 mRNA [1]; [7]) | % Inhibition (human SMAD7 mRNA [1]; [5]) | % inhibition of SMAD7 mRNA expression (human SMAD7 mRNA [1]; electroporation, 5,000 nM, approximately 24 hours, relative to untreated control cells, gapmers targeting SEQ ID NO: 1 and 2)
1 | 771581 (antisense eG*eG*eG*eA*e[5mC]*d[5mC]*d[5mC]*d[5mC]*dA*dG*d[5mC]*d[5mC]*dG*d[5mC]*d[5mC]*eA*eG*e[5mC]*eT*eT) [compound 771581] | 58% | 0% | 0% | 9% | 65% | 19 µM | – | – | – | – | – | –
2 | 771583 (antisense eT*eG*e[5mC]*eT*e[5mC]*d[5mC]*dT*dG*dG*d[5mC]*dA*dG*d[5mC]*dT*dG*e[5mC]*eT*eG*eG*eG) [compound 771583] | – | 0% | 15% | 36% | 59% | 10 µM | 57% | – | – | – | – | –
3 | 771610 (antisense eA*e[5mC]*e[5mC]*eT*eG*dA*dT*dG*dT*d[5mC]*dA*d[5mC]*d[5mC]*dA*dG*eG*eG*e[5mC]*eA*eG) [compound 771610] | – | 0% | 0% | 37% | 38% | > 20 µM | – | 52% | – | – | – | –
4 | 771632 (antisense eA*eA*eT*e[5mC]*e[5mC]*dT*dT*d[5mC]*dT*dT*dG*dG*dA*dG*dG*eG*eA*eA*eG*eG) [compound 771632] | – | 6% | 6% | 46% | 64% | 9 µM | – | 31% | 54% | – | – | –
5 | 771634 (antisense eT*eG*eA*e[5mC]*eG*dG*dA*d[5mC]*d[5mC]*dA*dA*dA*dT*d[5mC]*d[5mC]*eT*eT*e[5mC]*eT*eT) [compound 771634] | – | 0% | 3% | 40% | 36% | > 20 µM | – | 53% | – | – | – | –
6 | 771636 (antisense e[5mC]*e[5mC]*eT*eT*eG*dG*dG*dT*dT*dA*dT*dG*dA*d[5mC]*dG*eG*eA*e[5mC]*e[5mC]*eA) [compound 771636] | – | – | – | – | – | > 20 µM and 16 µM | 0% | – | – | – | – | –
7 | 771641 (antisense eA*eG*eT*eT*eA*dG*dG*dT*dG*dT*d[5mC]*dA*dG*d[5mC]*d[5mC]*eT*eA*eG*eG*eA) [compound 771641] | – | 3% | 16% | 24% | 50% | > 20 µM | – | 71% | – | – | – | –
8 | 771661 (antisense eA*eA*eT*eG*e[5mC]*dT*dT*d[5mC]*dT*d[5mC]*dT*dT*dG*dT*dT*e[5mC]*eA*eT*eT*eT) [compound 771661] | 69% | 0% | 0% | 6% | 28% | > 20 µM | – | – | – | – | – | –
9 | 771663 (antisense eT*eT*e[5mC]*e[5mC]*eA*dA*dT*dG*dA*dG*dA*dA*dT*dG*d[5mC]*eT*eT*e[5mC]*eT*e[5mC]) [compound 771663] | – | 10% | 24% | 43% | 56% | 11 µM | 56% | – | – | – | – | –
10 | 771670 (antisense eA*eG*eT*e[5mC]*e[5mC]*dT*dT*dT*d[5mC]*dT*d[5mC]*dT*d[5mC]*dT*d[5mC]*eA*eA*eA*eG*e[5mC]) [compound 771670] | – | 0% | 0% | 21% | 47% | > 20 µM | 46% | – | – | – | – | –
11 | 771671 (antisense eT*e[5mC]*eA*eG*eG*dA*dG*dT*d[5mC]*d[5mC]*dT*dT*dT*d[5mC]*dT*e[5mC]*eT*e[5mC]*eT*e[5mC]) [compound 771671] | – | 0% | 9% | 27% | 49% | > 20 µM | 69% | – | – | – | – | –
12 | 771704 (antisense e[5mC]*eA*eG*eG*eA*dG*dG*dG*dT*dA*dT*dG*d[5mC]*dA*d[5mC]*eA*e[5mC]*eT*e[5mC]*eT) [compound 771704] | – | 14% | 19% | 30% | 54% | > 20 µM | – | – | 55% | 32% | – | –
13 | 771705 (antisense eA*eA*eT*eG*e[5mC]*d[5mC]*d[5mC]*dT*dT*dT*dG*dA*dG*dT*dT*eT*e[5mC]*e[5mC]*e[5mC]*e[5mC]) [compound 771705] | – | 0% | 0% | 0% | 9% | – | – | – | – | 52% | – | –
14 | 771711 (antisense e[5mC]*eG*e[5mC]*eA*e[5mC]*dT*dT*d[5mC]*dA*d[5mC]*dA*dG*dT*dT*d[5mC]*eA*e[5mC]*eA*eG*eG) [compound 771711] | – | 17% | 25% | 27% | 59% | 18 µM | – | – | – | – | 57% | –
15 | 771715 (antisense eA*eG*eT*e[5mC]*eT*d[5mC]*d[5mC]*dG*dA*dG*dT*dT*dA*dT*d[5mC]*e[5mC]*e[5mC]*e[5mC]*eA*eT) [compound 771715] | – | 7% | 18% | 42% | 49% | 17 µM | – | – | – | – | 67% | 68%
16 | 771717 (antisense eT*e[5mC]*e[5mC]*e[5mC]*eA*dT*d[5mC]*dT*dA*dT*d[5mC]*dG*dA*dA*dT*e[5mC]*eA*e[5mC]*e[5mC]*e[5mC]) [compound 771717] | 57% | 2% | 0% | 0% | 30% | > 20 µM | – | – | – | – | – | –
17 | 771732 (antisense eG*eT*e[5mC]*eA*eT*dG*dT*dG*dA*dA*d[5mC]*dA*d[5mC]*dT*d[5mC]*eT*eT*eT*e[5mC]*eA) [compound 771732] | – | 35% | 24% | 39% | 58% | 15 µM | – | – | – | – | 36% | –
18 | 771733 (antisense eT*eG*eA*e[5mC]*eA*dG*d[5mC]*d[5mC]*dA*d[5mC]*dA*dA*dG*dT*d[5mC]*eA*e[5mC]*eA*eA*e[5mC]) [compound 771733] | 75% | 0% | 0% | 26% | 61% | 16 µM | – | – | – | – | – | –
